The subject of one data set is BMSC 8.6. Kind of data set: Constitutive proliferation of murine non-lymphoid BMSC 8.6 cells. The data set is classed as cell-based. To be noted: Mus musculus; BMSC 8.6 proliferation; best response. The source says:
(§1) ^d Bone marrow stromal cells (MBSC) derived from CS7BL/6 mice.

The nature of data set [1]: Constitutive proliferation of human non-lymphoid normal (foreskin) fibroblasts. The note with it: human, foreskin fibroblasts.
The subject of another data set is Normal Fibroblast. The data set is described as above.
A further data set deals with SF 539. As to the kind of experiment: NCI in vitro tumor cell line panel, LC50, CNS cancer. The data set is classed as cell-based, human. An excerpt: (§2) Discodermolide was additionally evaluated for its anti-proliferative effects utilizing the National Cancer Institute's in vitro tumor cell line panel. The results of these analyses are shown in the mean graphs presented as FIGS. 1A-1K. The data are presented using known and accepted measurements of "Growth Inhibition-50" (GI50), where growth of 50% of the cells is inhibited; "Total Growth Inhibition" (TGI), where growth of all cells is inhibited, i.e., cytostasis; and "Lethal Concentration-50" (LC50), where 50% of the cells are killed.

A further data set has as its system SF 295. The description is as above. The data set is classed as cell-based, human.
Source text: as §2

Another data set relates to Swiss 3TC. As to the kind of experiment: Constitutive proliferation of murine non-lymphoid Swiss 3TC cells. The data set is classed as cell-based. The note with it: Mus musculus; Swiss 3TC proliferation; best response.
Another data set relates to tubulin. Kind of data set: Electron micrographs of polymers of tubulin. The data set is classed as biochemical. The note with it: compared with control.
The subject of another data set is MDA-MB-435. As to the kind of experiment: NCI in vitro tumor cell line panel, LC50, breast cancer. The format is cell-based, human.
Source text: as §2

The test system of a further data set is MDA-N. The description is as above. The data set is classed as cell-based, human.
Source text: as §2

A further data set has as its system A549 human lung cells. As to the kind of experiment: Cell cycle analysis of A549 human lung cells. The format is cell-based. The note with it: 48 hours. As for the experimental part:
Cell cycle studies were initiated in order to pinpoint a specific phase within the cell cycle in which discodermolide was exerting its antiproliferative effect. GI-101A human breast and A549 human lung cells were used as cell cycle targets to compare the effects of discodermolide and taxol on perturbation of the cell cycle. Cell cycle analyses were performed as follows: GI-101A and A549 cells were incubated at 37° C. in 10% CO2 in air in the presence or absence of varying concentrations of discodermolide or taxol (purchased from Molecular Probes, Eugene, Oreg.) for 48 hours. Cells were harvested, fixed in ethanol, and stained with 0.5 mg/ml of propidium iodide (P.I.) together with 0.1 mg/ml of RNase A. This procedure permeabilizes live cells and allows entry of P.I. to stain DNA. Stained preparations were analyzed on a Coulter EPICS ELITE with 488 nm excitation with the dead cells excluded by back-gating of P.I. preparations without detergent on forward and side scatter histograms. Fluorescence measurements and resulting DNA histograms were collected from at least 5,000 P.I. stained cells at an emission wavelength of 690 nm. Raw histogram data were further analyzed using a cell cycle analysis program (Multicycle, Phoenix Flow Systems).
Discodermolide and taxol were compared for their effects on the proliferation of A549 human lung cells. Cell cultures were similarly initiated in the presence and absence of various concentrations of discodermolide or taxol and incubated at 37° C. in 10% CO2 in air for 48 hours. Cells were harvested and stained and analyzed on the flow cytometer as outlined above.

A further data set deals with BMSC 25.4. Kind of data set: Constitutive proliferation of murine non-lymphoid BMSC 25.4 cells. The note with it: Mus musculus; BMSC 25.4 proliferation; best response. The data set is classed as cell-based.
Source text: as §1

A further data set concerns NCI-H23. As to the kind of experiment: NCI in vitro tumor cell line panel, LC50, non-small cell lung cancer. To be noted: human non-small cell lung cancer (NCI-H23). The format is cell-based.
Source text: as §2

For data set [2], the system named is murine lymphoid and non-lymphoid cell lines. As to the kind of experiment: Constitutive proliferation of murine lymphoid and non-lymphoid cell lines (summary). The data set is classed as cell-based. To be noted: Mus musculus, read-out: IC50 values, range over murine cell lines.
Source text: (§3) The effects of discodermolide on the inhibition of constitutive proliferation of a number of lymphoid and non-lymphoid cell lines of mouse or human origin was investigated.

Each structure is given as a SMILES string. pIC50: −log10 of the molar value.

This note sets out measurements from patent US5840750A, “Discodermolide compounds” (priority 1996, dated 1998).

Source text for Swiss 3TC: as §3

The pIC50 is the IC50 on a negative log10 scale, so that one unit is a factor of ten. On to `C=C/C=C\C(C)C(OC(N)=O)C(C)C(O)C(C)C/C(C)=C\C(C)C(O)C(C)/C=C\C(O)CC1OC(=O)C(C)C(O)C1C` (single isomer, unassigned) [discodermolide], for which the pIC50 in the data set with BMSC 8.6 is 7.08; in the data set with Normal Fibroblast (Homo sapiens, Fibroblast), 7.82; in the data set on Swiss 3TC it was 7.43; with BMSC 25.4, 7.23; in [2] it was 7.22 to 8.52. The compound further displayed a CC50 in data set [1] of more than 3000 nM. Further, in the data set on Normal Fibroblast (human foreskin fibroblast, concentrations up to 3.0 μM), the “viable cell recovery (toxicity)” value is reported as “not affected”. The “LC50 (in words)” value with SF 539, in the data set on SF 295, in the data set with MDA-MB-435, in the data set on MDA-N and with NCI-H23 was “particularly effective” throughout. In addition, the “electron micrographs of polymers of tubulin” value in the data set on tubulin is “very similar characteristics, presence of polymers, microtubules, and sheets”. Further, in the data set on A549 human lung cells (control 19%), the “percentage of S phase cells (in words)” value was “did not change significantly”. The “percentage of cells in G2 /M” value with A549 human lung cells (discodermolide 100 ng/ml, control 4%) worked out at 67%. For the same compound, the “percentage of cells in G1” value in the data set with A549 human lung cells (discodermolide 100 ng/ml, control 77%) turned out to be 18%.
